The text below walks through data of patent US20120148510A1, “Compositions and Methods for Improving the Appearance of Facial Pores” (priority 2010, published 2012).

Values joined by “and” are separate entries in the source; they are usually repeats but may differ in a detail not shown here. Equal entries are not always repeated.

One test relates to IL-1 beta. Put plainly: IL-1 inhibition assay (ICAM-1 promoter/luciferase reporter in ECV304 cells). The class given is cell-based, Human. As to conditions: 5% concentration of hexyldecanol diluted to 0.05%; four replicates; 10 U/ml IL-1 beta, 4 hours. As to the method: A. IL-1 Inhibition Assay Protocol
One vial of Human ECV304 cells stably transfected with human ICAM-1 promoter/luciferase reporter construct (pGL3 basic plasmid) and CMV-βgal/RSV-neo plasmid DNA (clone E1.3-22) is placed in a 75 cm flask with 15 ml of complete maintenance media defined as follows: M199 (Gibco, cat #11150-059, 1× liquid, 500 ml containing Earle's salts, Na bicarbonate, and L-glutamine), 10% FBS (certified, heat-inactivated from Gibco, cat #10082-147), 10 ug/ml gentamicin (Gibco, cat #15710-015—10 mg/ml soln (1000×), and 250 μg/ml geneticin antibiotic (active G418 from Gibco, cat 10131-035-50 mg/ml soln).
When cells are 85-90% confluent remove media. Dilute (10×) trypsin-EDTA (Gibco cat #15400-039) to (1×) with HBSS and add 3 ml of (1×) trypsin-EDTA to flask and rinse. Remove trypsin and add a fresh 3 ml/flask and incubate 3-4 min. Strike end of flask to detach cells, and then add 6 ml of complete maintenance medium thoroughly washing the flask and place liquid in a conical tube. Then rinse each flask with an additional 3 ml of maintenance media. Spin tube at 200×g (approx 900 rpm for centrifuge in 3N066B) for 7 minutes. Aspirate supernatant and resuspend cells in 10 ml of maintenance media. Place 10 ul of cell suspension into a hemocytometer and count cells in 5 squares. Use following equation—total# of cells counted ×dilution×104/# of squares counted=cells/ml. […]
Background: A reporter such as luciferase makes a cellular process visible.

The subject of test [1] is HAS-2 gene (Hyaluronic Acid Synthase-2 gene). Nature of the test: Hyaluronic Acid (HA) Synthase expression, keratinocyte culture, Affymetrix GeneChip microarray. The class given is cell-based. As to conditions: 10 micro molar hexyldecanol; human telomerized keratinocytes; 6 hours exposure; six GeneChips; p-value=0.0366. As to the method:
B. Hyaluronic Acid (HA) Synthase Expression
Individual experiments (referred to as batches) are generally comprised of 60 Affymetrix GeneChips® (referred to as “instances”) containing 6 vehicle control samples, 2 positive control samples and 52 individual test material samples. Duplication of test materials is performed across batches. In vitro testing is performed in 6-well plates to provide sufficient RNA for GeneChip® analysis (2-4 ug total RNA yield/well). Human telomerized keratinocytes are grown in EpiLife® media with 1× Human Keratinocyte Growth Supplement (Invitrogen) on collagen I coated cell culture flasks and plates (Becton Dickinson). Cells are seeded into 6-well plates at 20,000 cells/cm2 24 hours before chemical exposure. At t=−24 hours cells are trypsinized from T-75 flasks and plated into 6-well plates in basal growth medium. At t=0 media is removed and replaced with the appropriate dosing solution as per the experimental design. Dosing solutions are prepared the previous day in sterile 4 ml Falcon snap cap tubes. After 6 hours of chemical exposure cells are viewed and imaged. […]
2. Transcriptional Screening—RNA Analyzed with Gene Chips […]
Data quality was determined using a variety of statistical measures, including t-tests, scatter biplots, and principal components analysis, depending upon the source and character of the data. […]

In a further test the test system is facial pores. Put plainly: 9 week in vivo split face study, Pore Area Fraction by image analysis. On the set-up: species or system human. The note with it: vehicle + 5% Hexyldecanol, twice daily topical on face, 8 weeks, upper cheek area, FIG. 1. The method, then:
A 9 week in vivo study was conducted using a round robin, vehicle controlled, split face design including a 1 week normalization period with 330 subjects.
Treatment Regimen—The regimen begins with a one week washout period. Each morning the subject is to wash their face with a suitable cleanser (e.g., Olay Natural Science Deep Purify Cleanser, available from The Procter & Gamble Company, Cincinnati, Ohio), gently dry with a towel, apply a stock moisturizer (e.g., Vehicle as described in Table 2 with 3% glycerine, no panthenol, and 0.3% disodium EDTA) to the appropriate side of the face, wait 5 minutes, and then apply a UV blocking lotion (e.g., Olay Complete All Day Moisturizing Lotion SPF 15, available from The Procter & Gamble Company, Cincinnati, Ohio). […]
Images of the facial treatment sites are captured at baseline (week 0), and after 4 and 8 weeks of treatment and analyzed for changes to facial pores. […]
The region of interest (ROI), in this case the upper cheek area, was marked manually based on 12 predefined facial landmarks around the cheek—for example, corners of the eye, bridge of the nose, corners of the mouth. The degree of facial pores in the ROI were quantified objectively using image analysis algorithms based on an Optimus software platform. […]

Consider `CCCCCCCCC(CO)CCCCCC` (stereo not drawn) [Hexyldecanol, 2-hexyldecan-1-ol], for which, in the test with IL-1 beta, the “reduction of IL-1 stimulatory activity” value was 24% and 18% (2×) and 21%. The “HAS-2 gene transcriptional expression level, average fold change” value in test [1] was 1.336 fold change. Further, the “reduction of Pore Area Fraction versus vehicle control” value in the test with facial pores was “significantly (p<=0.10) reducing Pore Area Fraction better than the control”.
